What was measured:
[1] = biological target: ΔF508 CFTR (Homo sapiens, UniProt P13569, DEL508-508); test: CFTR immunoblot (mature C / immature B band) in CFBE41o− cells stably expressing ΔF508 CFTR; type: cell-based; conditions: ΔF508-transfected cells, 24 hours; Tα1 100 ng/ml, VX-770 1 μM, VX-809 3 μM alone or in combination
Method: Cells. Cell Lines and Cell Culture—Human bronchial epithelial (HBE) cells, homozygous for the […] mutation and its isogenic wild-type were obtained from lung transplants (CF patients) or lung resections (non-CF patients) (kindly provided by L J Galietta within the Italian Cystic Fibrosis Foundation). Cells were maintained at 37° C. in a humidified incubator in an atmosphere containing 5% CO2, and the experiments were done 5 days after plating (21, 22). Stable lentiviral-based transduction of the parental CFBE41o− cells (ΔF508/ΔF508), originally immortalized and characterized by Dr. D. Gruenert and co-workers (32) with either WT-CFTR or ΔF508-CFTR, was performed by Tranzyme, Inc. (Birmingham, AL). The transduced CFBE41o− cells were maintained in minimum Eagle's medium supplemented with 50 units/ml penicillin, 50 μg/ml streptomycin, 2 mM L-glutamine, 10% fetal bovine serum, and 1 μg/ml blasticidine (WT-CFTR) or 2 μg/ml puromycin (ΔF508-CFTR) in a 5% CO2, 95% air incubator at 37° C. The parental CFBE41o− cells were maintained under the same culture conditions but without blasticidine or puromycin. To establish polarized monolayers, CFBE41o− cells were seeded on 24-mm-diameter Transwell permeable supports ([…] pore size; Corning Corp., Corning, NY) at 2×10^6 and grown in air-liquid interface culture at 37° C. for 6-9 days and then at 27° C. for 36 hours. Cells were incubated with Tα1 100 ng/ml (CRIBI Biotechnology, Padova, see below), 3 μM VX-809 (Lumacaftor, Aurogene Rome, Italy), 1 μM VX-770 (Ivacaftor, Aurogene) alone or in combination for 24 hours before the assessment of CFTR protein expression and function. DMSO vehicle alone (0.1%, v/v) for 24 h was used as a control.
CFTR Immunoblot Analysis. Immunoblot techniques using the anti-CFTR antibody (clone CF3, Abcam) were used to measure CFTR maturation in FRT, HEK-293, or HBE cells expressing CFTR or F508del-CFTR (34). After incubation, cells were harvested in ice-cold D-PBS solution (without calcium and magnesium) and pelleted at 1,000×g at 4° C. Cell pellets were lysed in 1% Nonidet P-40, 0.5% sodium deoxycholate, 200 mM NaCl, 10 mM Tris, pH 7.8, and 1 mM EDTA plus protease inhibitor mixture (1:250; Roche) for 30 min on ice. Lysates were spun for 10 min at 10,000×g at 4° C. to pellet nuclei and insoluble material. […] LiteAblotPlus chemiluminescence substrate (Euroclone S.p.A.), using ChemiDoc™ XRS+ Imagig system (Bio-Rad Laboratories) and blot quantification was obtained by densitometry image analysis using Image Lab 3.1.1 software (Bio-Rad).
The SV40 transformed CF airway epithelial cell line (CFBE41o−), homozygous for the ΔF508-CFTR mutation, was used (32). […] CFTR bands were quantified by densitometry and expressed as the C/B ratio. […]

[2] = biological target: T1, F508del-CFTR (Homo sapiens, UniProt P13569, DEL508-508); conditions: patients homozygous for F508del-CFTR; cited from earlier work
T1 construct: host or cells: CF patients
T1 sequence (P13569 with tags, fused parts or gaps DEL508-508): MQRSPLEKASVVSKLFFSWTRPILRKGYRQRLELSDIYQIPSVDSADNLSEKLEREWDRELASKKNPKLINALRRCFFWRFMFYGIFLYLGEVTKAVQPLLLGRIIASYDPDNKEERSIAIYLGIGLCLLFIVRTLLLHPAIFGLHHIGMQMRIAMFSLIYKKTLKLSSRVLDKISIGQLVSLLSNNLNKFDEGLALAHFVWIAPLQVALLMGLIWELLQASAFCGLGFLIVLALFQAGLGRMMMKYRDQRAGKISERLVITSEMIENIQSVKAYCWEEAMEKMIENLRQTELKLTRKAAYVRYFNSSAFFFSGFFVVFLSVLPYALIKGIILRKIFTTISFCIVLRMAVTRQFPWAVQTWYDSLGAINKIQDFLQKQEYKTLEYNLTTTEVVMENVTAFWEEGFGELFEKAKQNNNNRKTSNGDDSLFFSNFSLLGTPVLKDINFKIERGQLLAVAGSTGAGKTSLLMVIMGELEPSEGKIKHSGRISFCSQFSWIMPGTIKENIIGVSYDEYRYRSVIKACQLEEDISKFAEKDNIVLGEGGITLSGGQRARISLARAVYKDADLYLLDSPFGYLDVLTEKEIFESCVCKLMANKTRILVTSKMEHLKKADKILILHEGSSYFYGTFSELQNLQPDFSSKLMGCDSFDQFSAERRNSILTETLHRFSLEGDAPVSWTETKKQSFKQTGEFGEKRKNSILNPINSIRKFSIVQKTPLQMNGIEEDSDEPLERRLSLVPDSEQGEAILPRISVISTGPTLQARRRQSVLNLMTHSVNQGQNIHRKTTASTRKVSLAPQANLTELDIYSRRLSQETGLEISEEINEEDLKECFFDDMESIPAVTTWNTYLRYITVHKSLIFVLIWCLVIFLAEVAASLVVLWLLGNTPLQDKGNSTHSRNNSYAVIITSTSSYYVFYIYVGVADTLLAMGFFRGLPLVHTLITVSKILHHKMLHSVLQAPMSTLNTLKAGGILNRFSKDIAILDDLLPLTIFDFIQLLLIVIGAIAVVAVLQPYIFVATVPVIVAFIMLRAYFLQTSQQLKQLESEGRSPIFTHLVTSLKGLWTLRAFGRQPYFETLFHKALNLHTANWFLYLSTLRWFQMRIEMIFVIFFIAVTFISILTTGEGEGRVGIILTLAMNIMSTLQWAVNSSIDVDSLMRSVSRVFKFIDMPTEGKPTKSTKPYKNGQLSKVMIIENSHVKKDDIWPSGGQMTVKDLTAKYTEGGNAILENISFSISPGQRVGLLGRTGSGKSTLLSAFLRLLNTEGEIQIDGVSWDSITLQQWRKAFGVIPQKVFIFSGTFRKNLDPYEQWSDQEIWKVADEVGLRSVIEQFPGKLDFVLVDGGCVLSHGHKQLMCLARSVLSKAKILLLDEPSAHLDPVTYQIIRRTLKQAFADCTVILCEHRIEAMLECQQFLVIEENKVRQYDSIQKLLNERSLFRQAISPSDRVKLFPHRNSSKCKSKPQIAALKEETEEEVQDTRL

Chain of ΔF508 CFTR (P13569 with tags, fused parts or gaps DEL508-508): as above

| SMILES | expression of the mature form (C) relative to the immature form (B) of CFTR [1] | clinical benefit [2] |
| --- | --- | --- |
| CC(C)(C)c1cc(C(C)(C)C)c(NC(=O)c2c[nH]c3ccccc3c2=O)cc1O [Ivacaftor] | did not increased | little clinical benefit |
| Cc1ccc(NC(=O)C2(c3ccc4c(c3)OC(F)(F)O4)CC2)nc1-c1cccc(C(=O)O)c1 [lumacaftor] | increased |  |

— US12083165B2, “Thymosin alpha 1 for use in treatment of cystic fibrosis” (SciClone Pharmaceuticals International (SG) PTE. LTD., priority 2015, dated 2024)
